Test results as given in patent US20210121466A1, “COMBINATION THERAPY OF A CHIMERIC ANTIGEN RECEPTOR (CAR) T CELL THERAPY AND A KINASE INHIBITOR” (Juno Therapeutics, Inc., priority 2018, published 2021).

Columns and labels:
anti-CD19 CAR T cells [1] = assay: Cytolytic activity of anti-CD19 CAR T cells co-cultured with K562-CD19 target cells in the presence of ibrutinib (IncuCyte); type: cell-based, human
Text: (§1) To generate CAR-expressing T cells, T cells were isolated by immunoaffinity-based enrichment from three healthy human donor subjects, and cells from each donor were activated and transduced with a viral vector encoding an anti-CD19 CAR. The CAR contained an anti-CD19 scFv, an Ig-derived spacer, a human CD28-derived transmembrane domain, a human 4-1BB-derived intracellular signaling domain and a human CD3 zeta-derived signaling domain. The nucleic acid construct encoding the CAR also included a truncated EGFR (tEGFR) sequence for use as a transduction marker, separated from the CAR sequence by a self-cleaving T2A sequence.
(§2) CAR-expressing CD4+ and CD8+ cells were mixed 1:1 for each donor, individually, and the pooled cells for each donor assessed in vitro under various conditions.
The target cells were labeled with NucLight Red (NLR), to permit tracking of target cells by microscopy.

CAR+ T cells = assay: Ex vivo immunophenotyping (flow cytometry, t-SNE) of CAR+ T cells at day 12 post CAR T transfer; type: in vivo, NSG mice
Description: (§3) NSG mice described in Example 2 were intravenously injected on day 0 with 5×10^5 Nalm-6 cells expressing firefly luciferase. […] To permit assessment of the effect of a combination therapy with the inhibitor, a suboptimal dose of anti-CD19 CAR T cells was i.v. injected into the mice at 5×10^5/mouse at day 5. As a control, mice were administered the vehicle control without administration of the CAR-T cells or inhibitor.
Flow cytometry histograms showing the individual expression profiles of CD4, CD8, CD62L, CD45RA, CD44 and CXCR3 from the 4 gated t-SNE in FIG. 8B overlaid on the expression of the total population (shaded) is shown in FIG. 8C.

[2] = test system: CD19+ Nalm-6 disseminated tumor line; assay: Disseminated Nalm-6 tumor xenograft mouse model, ibrutinib by daily oral gavage; type: in vivo, NSG mice
Text: On day zero (0), NSG mice were intravenously injected with 5×10^5 Nalm-6 cells expressing firefly luciferase. […] To permit assessment of the effect of a combination therapy with the inhibitor, a suboptimal dose of anti-CD19 CAR T cells from two different donors (generated by transducing cells derived from samples of human donor subjects essentially as described above) were i.v. injected into each mouse at a concentration of 5×10^5 CAR+ T cells per mouse at day 5. […] Eight (N=8) mice per group were monitored.
Following treatment as described above, tumor growth over time was measured by bioluminescence imaging and the average radiance (p/s/cm^2/sr) was measured. Survival of treated mice also was assessed over time.

anti-CD19 CAR T cells [3] = assay: Gene expression analysis (Nanostring Immune V2 panel) after 18 days of serial stimulation; type: cell-based, human; conditions: 50 nM or 500 nM; day 18 of serial restimulation
Description: (§4) The ability of cells to expand ex vivo following repeated stimulations in some aspects can indicates capacity of CAR-T cells to persist (e.g., following initial activation) and/or is indicative of function and/or fitness in vivo (Zhao et al. (2015) Cancer Cell, 28:415-28). Anti-CD19 CAR+ T cells generated as described above were plated in triplicate at 100,000 cells/well on 96 well Poly-D-Lysine coated plates, and irradiated target cells (K562-CD19) were added at an effector to target ratio of 2.5:1. […] A total of 7 rounds of stimulation during a 25 day culture period were carried out.
At day 18 after serial stimulation, RNA was isolated from anti-CD19 CAR T cells and Nanostring Immune V2 panel tests were run across 594 genes. The log 2 (fold change) of each gene was plotted against the −log 10(Raw p-value) derived from ANOVA tests of unscaled housekeeping gene normalized to count data for treatment versus control.

[4] = in vivo; cited from earlier work
[5] = test system: anti-CD19 CAR-T cells from DLBCL subjects; assay: Serial restimulation and cytolytic function of anti-CD19 CAR-T cells manufactured from DLBCL patients; type: cell-based, human
Text: Cells were subjected to serial restimulation over a 21 day culture period and monitored for cell expansion and cytotoxic activity.

CAR-expressing T cells = assay: RNA-Seq molecular signature of CAR-expressing T cells after 18 days of serial stimulation; type: cell-based, human
Description: RNA isolation was performed using the RNEasy Micro Kit (Qiagen). Samples were sequenced and RNASeq reads were mapped to the human genome (GRCh38) and aligned to the GENCODE release 24 gene model. […] Differentially expressed genes were identified by imposing a log2 fold change cutoff of 0.5 and a Benjamini-Hochberg adjusted false discovery rate (FDR) cutoff of 0.05.

anti-CD19 CAR T cells [6] = assay: TH1 phenotype (CD4+CXCR3+CRTH2-) and activation/memory markers by flow cytometry during serial restimulation; type: cell-based, human
Description: as §4
A serial restimulation assay was performed as described above and cells were harvested at various times and analyzed by flow cytometry to assess percentage of TH1-phenotype (assessed as CD4+CXCR3+CRTH2−) T cells or TH2-phenotype (assessed as CD4+CXCR3−CRTH2+).

anti-CD19 CAR T cells [7] = assay: Expression of CAR-T cell surface markers by flow cytometry after stimulation with irradiated K562-CD19 cells; type: cell-based, human
Text: as §1, §2
CAR-T cells generated as described above were plated at 100,000 cells/well on 96 well Poly-D-Lysine coated plates. Irradiated K562-CD19 target cells were added at an effector to target ratio of 2.5:1. […] Cells were harvested at 1, 2, 3, and 4 days, and were analyzed by flow cytometry for T cell activation and differentiation surface markers CD69, CD107a, PD-1, CD25, CD38, CD39, CD95, CD62L, CCR7, CD45RO and for truncated EGFR (a surrogate marker for CAR-transduced cells).

anti-CD19 CAR T cells [8] = assay: Serial restimulation assay of anti-CD19 CAR+ T cells with K562-CD19 target cells; type: cell-based, human; conditions: day 18; both concentrations (50, 500 nM); two of three donors
Text: as §1, §2, §4

[9] = test system: CD19+ Nalm-6 disseminated tumor line; assay: Disseminated Nalm-6 tumor xenograft mouse model, ibrutinib in drinking water; type: in vivo, NSG mice
Description: as §3

[10] = test system: CAR+ T cells and Nalm-6 tumor cells; assay: Levels of CAR+ T cells and tumor cells in blood, bone marrow and spleen of Nalm-6 bearing mice; type: in vivo, NSG mice
Description: as §3
Samples were analyzed to assess presence and levels of CAR T cells (based on expression of the surrogate marker using an anti-EGFR antibody) and/or tumor cells at days 7, 12, 19 and 26 post CAR+ T cell transfer.

anti-CD19 CAR T cells [11] = assay: Cytokine production in supernatants of CAR-T / K562-CD19 co-cultures (MSD); type: cell-based, human
Text: as §1, §2
CAR-T cells generated as described above were plated at 100,000 cells/well on 96 well Poly-D-Lysine coated plates to which irradiated target cells (K562-CD19) were added at an effector to target ratio of 2.5:1. […] Culture supernatants were harvested every 24 hrs at days 1, 2, 3 and 4, and IFNγ, IL-2, TNFα, IL-4 and IL-10 were measured from the culture supernatants using cytokine kits from Meso Scale Discovery (MSD).

CAR T cells = assay: CD62L expression by flow cytometry after 18 days of serial stimulation; type: cell-based, human; conditions: donors 2 and 3
Description: as §4

SMILES: C=CC(=O)N1CCC[C@@H](n2nc(-c3ccc(Oc4ccccc4)cc3)c3c(N)ncnc32)C1 [ibrutinib, 1-[(3R)-3-[4-amino-3-(4-phenoxyphenyl)pyrazolo[3,4-d]pyrimidin-1-yl]piperidin-1-yl]prop-2-en-1-one]
- cytolytic function of the anti-CD19 CAR T cells (anti-CD19 CAR T cells [1]; all concentrations tested (0.5-5000 nM) during the co-culture): did not inhibit
- target cell killing (anti-CD19 CAR T cells [1]; one donor, P<0.0001): modestly increased target cell killing
- cytolytic activity of anti-CD19 CAR-expressing T cells (target cell killing normalized to untreated control, AUC) (anti-CD19 CAR T cells [1]; two donors, concentration increased up to 500 nM, E:T 2.5:1, 4 days): did not significantly impact
- population 4 as percentage of CAR-T cells (CAR+ T cells; bone marrow, day 12, ibrutinib-treated animals): 15.2%
- phenotype of CAR+ T cells isolated from bone marrow (CAR+ T cells; day 12, CAR-T cells with ibrutinib vs control): phenotypic changes were observed
- CD8+CD44hi CXCR3hi CD45RAlo CD62Lhi (population 2) and CD4+CD44hi CXCR3int CD45RAhi CD62Lhi (population 4) in bone marrow vs control mice (CAR+ T cells; day 12 post CAR T transfer): increase
- survival vs CAR T and vehicle ([2]; greater time points, two donors, ibrutinib with CAR T, p<0.001): significantly increased survival
- median survival vs suboptimal anti-CD19 CAR T cell dose + vehicle ([2]; ibrutinib 25 mg/kg qd P.O. with CAR-T cells): increased median survival
- tumor growth vs CAR-T cells and vehicle ([2]; ibrutinib 25 mg/kg qd P.O. with suboptimal dose of anti-CD19 CAR T cells, p<0.001, p<0.0001): significantly decreased tumor growth
- tumor burden (average radiance) vs vehicle ([2]; ibrutinib alone, 25 mg/kg qd P.O., ibrutinib-resistant model): no effect on tumor burden
- gene expression (594 genes) (anti-CD19 CAR T cells [3]): did not significantly alter gene expression
- Cmax [4]: 227 nM
- cytolytic activity ([5]; 50 nM, 16 days of serial stimulation, one patient, P<0.01): increase in cytolytic activity
- cytolytic function ([5]; 500 nM, 16 days of serial stimulation, each subject): increase in cytolytic function
- proliferation of CAR T cells (cell doublings) ([5]; 50 and 500 nM, 21 day culture, both DLBCL patients): did not inhibit the proliferation
- gene expression changes (CAR-expressing T cells; 50 nM, day 18): not significant, similar trends
- expression of HES6, HIC1, LZTFL1, NRIP1, CD38 and RARRES3 (CAR-expressing T cells; day 18 serial stimulation): downregulation
- expression of MSC (CAR-expressing T cells; day 18 serial stimulation): upregulation
- expression of SELL/CD62L (CAR-expressing T cells; day 18 serial stimulation): increases
- expression of granzyme A and CD38 (CAR-expressing T cells; day 18 serial stimulation): decreases
- percentage of TH1 cells (anti-CD19 CAR T cells [6]; 500 nM, P<0.01): further enhanced
- additional CAR T activation or memory markers (anti-CD19 CAR T cells [6]; CAR T cells from the serial stimulation assay): No significant effects
- percentage of CAR+ T cells with TH1 phenotype (anti-CD19 CAR T cells [6]; after serial stimulation, greater with increasing concentrations): increase the percentage
- expression of truncated EGFR surrogate marker, activation markers CD25, CD38, CD39, CD95, CD62L and phenotypic markers CCR7, CD62L, CD45RO (anti-CD19 CAR T cells [7]; 5000, 500, 50, 5 and 0.5 nM, 3 donors, up to 4 days): no significant effect
- expression levels of CD69, CD107a or PD-1 (anti-CD19 CAR T cells [7]; CD4+ or CD8+ cells cultured in the presence of ibrutinib): subtle decrease in expression levels
- percentage of anti-CD19 CAR T cells expressing CD69, CD107a or PD-1 (anti-CD19 CAR T cells [7]; highest (supraphysiological) concentration tested): subtle decrease in the percentage
- phenotype of cells as central memory (TCM) or effector memory (TEM) subsets (CCR7, CD45RA) (anti-CD19 CAR T cells [7]; over four days after stimulation): did not affect the phenotype
- cell numbers and population doublings of anti-CD19 CAR T cells (anti-CD19 CAR T cells [8]): enhanced cell numbers and population doublings
- tumor growth vs CAR T with vehicle alone ([9]; ibrutinib 25 mg/kg/day in drinking water with CAR T): significantly (P<0.001) decreased tumor growth
- median survival vs suboptimal anti-CD19 CAR T cell dose + vehicle ([9]; ibrutinib 25 mg/kg/day in drinking water with anti-CD19 CAR-T cells, p<0.001): increased median survival
- tumor cells detected in the blood, bone marrow or spleen vs vehicle alone ([10]; CAR+ cell treatment combined with ibrutinib): significantly fewer tumor cells
- circulating CAR+ T cells vs CAR+ T cells and vehicle ([10]; blood, ibrutinib in drinking water): significant increase
- number of CAR-T cells in the blood ([10]; day 19 post CAR-T cell transfer, p<0.05): significant increase in the number of cells
- IFN-γ and IL-2 production (anti-CD19 CAR T cells [11]; 50 nM): some increase
- cytokine production (anti-CD19 CAR T cells [11]; 50 nM, some donors): modestly increased
- cytokine concentrations (anti-CD19 CAR T cells [11]; physiological concentrations of ibrutinib): did not significantly decrease
- CD62L expression (CAR T cells): significant increase
